# Results from ChEMBL document CHEMBL1201862, “PubChem BioAssay data set” (2004).
#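 Grown in 96-well plates, cells were treated for 48 hours with each compound at five concentrations. Insufficient inhibition: endpoint recorded as highest concentration tested. GI50 is the concentration that inhibits growth by half.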 Calls of active or inactive are those of the source. Cut-off read from the data, not from the text of the source: active = GI50 up to about 1.1 µM and inactive = higher.
# Columns and labels:
# Test in all cases: NCI tumour cell line growth inhibition, 48 h
# CAKI-1 = test system: CAKI-1
# SF-539 = test system: SF-539
# LOX IMVI = test system: LOX IMVI
# HOP-92 = test system: HOP-92
# SNB-78 = test system: SNB-78
# EKVX = test system: EKVX
# UACC-62 = test system: UACC-62
# HT-29 = test system: HT-29
# MOLT-4 = test system: MOLT-4
# SK-OV-3 = test system: SK-OV-3
# HCT-15 = test system: HCT-15
# SNB-19 = test system: SNB-19
# CCRF-CEM = test system: CCRF-CEM
# M19-MEL = test system: M19-MEL
# IGROV-1 = test system: IGROV-1
# NCI-H226 = test system: NCI-H226
# SN12C = test system: SN12C
# OVCAR-3 = test system: OVCAR-3
# U-251 = test system: U-251
# NCI-H23 = test system: NCI-H23
# SK-MEL-5 = test system: SK-MEL-5
# K562 = test system: K562
# ACHN = test system: ACHN
# SK-MEL-28 = test system: SK-MEL-28
# SW-620 = test system: SW-620
# LXFL 529 = test system: LXFL 529
# SF-268 = test system: SF-268
# XF498 = test system: XF498
# A498 = test system: A498
# SK-MEL-2 = test system: SK-MEL-2
# HL-60 = test system: HL-60
# NCI-H522 = test system: NCI-H522
# TK-10 = test system: TK-10
# M14 = test system: M14
# SNB-75 = test system: SNB-75
# SF-295 = test system: SF-295
# RPMI-8226 = test system: RPMI-8226
# COLO 205 = test system: COLO 205
# HOP-18 = test system: HOP-18
# KM-20L2 = test system: KM-20L2
# OVCAR-8 = test system: OVCAR-8
# Malme-3M = test system: Malme-3M
# UO-31 = test system: UO-31
# NCI-H460 = test system: NCI-H460
# DMS-114 = test system: DMS-114
# DMS-273 = test system: DMS-273
# OVCAR-4 = test system: OVCAR-4
# HCT-116 = test system: HCT-116
# 786-0 = test system: 786-0
# RXF 393 = test system: RXF 393
# HOP-62 = test system: HOP-62
# DLD-1 = test system: DLD-1
# UACC-257 = test system: UACC-257
# OVCAR-5 = test system: OVCAR-5
# HCC 2998 = test system: HCC 2998
# A549 = test system: A549
# KM12 = test system: KM12
# SR = test system: SR
smiles,measurement,setting,value
COc1cc2c(cc1OC)C(Cl)C(c1ccc(Cl)c(Cl)c1)=C2Cl (centres undefined),GI50,CAKI-1,11.2 µM (inactive)
same,GI50,SF-539,10.3 µM (inactive)
same,GI50,LOX IMVI,2.24 µM (inactive)
same,GI50,HOP-92,4.15 µM (inactive)
same,GI50,SNB-78,5.56 µM (inactive)
same,GI50,EKVX,18 µM (inactive)
same,GI50,UACC-62,4.37 µM (inactive)
same,GI50,HT-29,4.38 µM (inactive)
same,GI50,MOLT-4,2.92 µM (inactive)
same,GI50,SK-OV-3,15.5 µM (inactive)
same,GI50,HCT-15,3.33 µM
same,GI50,SNB-19,15.6 µM (inactive)
same,GI50,CCRF-CEM,3.02 µM (inactive)
same,GI50,M19-MEL,9.02 µM (inactive)
same,GI50,IGROV-1,10.7 µM (inactive)
same,GI50,NCI-H226,8.99 µM (inactive)
same,GI50,SN12C,9.27 µM (inactive)
same,GI50,OVCAR-3,4.18 µM (inactive)
same,GI50,U-251,4.71 µM (inactive)
same,GI50,NCI-H23,44.6 µM (inactive)
same,GI50,SK-MEL-5,5.94 µM (inactive)
same,GI50,K562,3.22 µM (inactive)
same,GI50,ACHN,10.2 µM (inactive)
same,GI50,SK-MEL-28,12 µM (inactive)
same,GI50,SW-620,6.18 µM (inactive)
same,GI50,LXFL 529,5.15 µM (inactive)
same,GI50,SF-268,6.21 µM (inactive)
same,GI50,XF498,< 0.01 µM (active)
same,GI50,A498,16.9 µM (inactive)
same,GI50,SK-MEL-2,6.84 µM (inactive)
same,GI50,HL-60,2.47 µM (inactive)
same,GI50,NCI-H522,66.4 µM (inactive)
same,GI50,TK-10,20.7 µM (inactive)
same,GI50,M14,9.4 µM (inactive)
same,GI50,SNB-75,8.79 µM (inactive)
same,GI50,SF-295,9.82 µM (inactive)
same,GI50,RPMI-8226,3.14 µM (inactive)
same,GI50,COLO 205,10.7 µM (inactive)
same,GI50,HOP-18,12.9 µM (inactive)
same,GI50,KM-20L2,8.71 µM (inactive)
same,GI50,OVCAR-8,6.62 µM (inactive)
same,GI50,Malme-3M,12.6 µM (inactive)
same,GI50,UO-31,10.6 µM (inactive)
same,GI50,NCI-H460,4.09 µM (inactive)
same,GI50,DMS-114,3.42 µM (inactive)
same,GI50,DMS-273,3.86 µM (inactive)
CC(C)C1N2CCCCC2[C@@H]2c3[nH]c4ccccc4c3CCN12 (some centres undefined),GI50,CAKI-1,> 100 µM (inactive)
same,GI50,SF-539,> 100 µM (inactive)
same,GI50,HOP-92,> 100 µM (inactive)
same,GI50,SNB-78,> 100 µM (inactive)
same,GI50,EKVX,> 100 µM (inactive)
same,GI50,OVCAR-4,> 100 µM (inactive)
same,GI50,UACC-62,> 100 µM (inactive)
same,GI50,HT-29,> 100 µM (inactive)
same,GI50,MOLT-4,> 100 µM (inactive)
same,GI50,HCT-116,> 100 µM (inactive)
same,GI50,SK-OV-3,> 100 µM (inactive)
same,GI50,HCT-15,> 100 µM
same,GI50,SNB-19,> 100 µM (inactive)
same,GI50,CCRF-CEM,> 100 µM (inactive)
same,GI50,M19-MEL,> 100 µM (inactive)
same,GI50,IGROV-1,> 100 µM (inactive)
same,GI50,SN12C,> 100 µM (inactive)
same,GI50,OVCAR-3,> 100 µM (inactive)
same,GI50,U-251,> 100 µM (inactive)
same,GI50,NCI-H23,> 100 µM (inactive)
same,GI50,SK-MEL-5,> 100 µM (inactive)
same,GI50,K562,> 100 µM (inactive)
same,GI50,ACHN,> 100 µM (inactive)
same,GI50,SK-MEL-28,> 100 µM (inactive)
same,GI50,SW-620,> 100 µM (inactive)
same,GI50,LXFL 529,> 100 µM (inactive)
same,GI50,786-0,> 100 µM (inactive)
same,GI50,SF-268,> 100 µM (inactive)
same,GI50,XF498,> 100 µM (inactive)
same,GI50,A498,> 100 µM (inactive)
same,GI50,SK-MEL-2,> 100 µM (inactive)
same,GI50,RXF 393,> 100 µM (inactive)
same,GI50,HL-60,> 100 µM (inactive)
same,GI50,HOP-62,> 100 µM (inactive)
same,GI50,M14,> 100 µM (inactive)
same,GI50,SNB-75,> 100 µM (inactive)
same,GI50,DLD-1,> 100 µM (inactive)
same,GI50,SF-295,> 100 µM (inactive)
same,GI50,RPMI-8226,> 100 µM (inactive)
same,GI50,COLO 205,> 100 µM (inactive)
same,GI50,UACC-257,> 100 µM (inactive)
same,GI50,OVCAR-5,> 100 µM (inactive)
same,GI50,HOP-18,> 100 µM (inactive)
same,GI50,KM-20L2,> 100 µM (inactive)
same,GI50,OVCAR-8,> 100 µM (inactive)
same,GI50,HCC 2998,> 100 µM (inactive)
same,GI50,UO-31,> 100 µM (inactive)
same,GI50,NCI-H460,> 100 µM (inactive)
same,GI50,DMS-114,> 100 µM (inactive)
same,GI50,DMS-273,> 100 µM (inactive)
same,GI50,A549,> 100 µM (inactive)
O=C1c2ccoc2C(=O)c2oc(=O)ccc21,GI50,CAKI-1,> 45 µM (inactive)
same,GI50,SF-539,3.45 µM (inactive)
same,GI50,LOX IMVI,2.88 µM (inactive)
same,GI50,HOP-92,21.6 µM (inactive)
same,GI50,SNB-78,12.2 µM (inactive)
same,GI50,EKVX,20.8 µM (inactive)
same,GI50,OVCAR-4,5.13 µM (inactive)
same,GI50,UACC-62,17.1 µM (inactive)
same,GI50,HT-29,36.4 µM (inactive)
same,GI50,HCT-116,5.31 µM (inactive)
same,GI50,SK-OV-3,30.1 µM (inactive)
same,GI50,HCT-15,12 µM
same,GI50,SNB-19,16 µM (inactive)
same,GI50,CCRF-CEM,5.57 µM (inactive)
same,GI50,M19-MEL,1.56 µM (inactive)
same,GI50,IGROV-1,19.6 µM (inactive)
same,GI50,NCI-H226,> 42.6 µM (inactive)
same,GI50,SN12C,11.1 µM (inactive)
same,GI50,OVCAR-3,3.36 µM (inactive)
same,GI50,U-251,8.15 µM (inactive)
same,GI50,NCI-H23,2 µM (inactive)
same,GI50,SK-MEL-5,1.7 µM (inactive)
same,GI50,K562,6.46 µM (inactive)
same,GI50,ACHN,2.86 µM (inactive)
same,GI50,KM12,> 42 µM (inactive)
same,GI50,SK-MEL-28,5.43 µM (inactive)
same,GI50,SW-620,4.23 µM (inactive)
same,GI50,LXFL 529,6.75 µM (inactive)
same,GI50,786-0,16.8 µM (inactive)
same,GI50,SF-268,9.14 µM (inactive)
same,GI50,XF498,25.3 µM (inactive)
same,GI50,A498,> 59.3 µM (inactive)
same,GI50,SK-MEL-2,6.59 µM (inactive)
same,GI50,RXF 393,5.86 µM (inactive)
same,GI50,HL-60,2.32 µM (inactive)
same,GI50,NCI-H522,1.86 µM (inactive)
same,GI50,HOP-62,> 46.1 µM (inactive)
same,GI50,TK-10,> 45.1 µM (inactive)
same,GI50,M14,7.82 µM (inactive)
same,GI50,SNB-75,6.41 µM (inactive)
same,GI50,DLD-1,18.7 µM (inactive)
same,GI50,SF-295,17.5 µM (inactive)
same,GI50,RPMI-8226,3.67 µM (inactive)
same,GI50,COLO 205,> 41.2 µM (inactive)
same,GI50,UACC-257,7.33 µM (inactive)
same,GI50,SR,1.43 µM (inactive)
same,GI50,OVCAR-5,19.7 µM (inactive)
same,GI50,HOP-18,21.6 µM (inactive)
same,GI50,KM-20L2,> 46.1 µM (inactive)
same,GI50,OVCAR-8,6.35 µM (inactive)
same,GI50,HCC 2998,> 45.3 µM (inactive)
same,GI50,Malme-3M,3.16 µM (inactive)
same,GI50,UO-31,7.43 µM (inactive)
same,GI50,NCI-H460,18.7 µM (inactive)
same,GI50,DMS-114,2.05 µM (inactive)
same,GI50,DMS-273,16.8 µM (inactive)
same,GI50,A549,20.3 µM (inactive)
